Assay results taken from the NIST ThermoML archive (doi:10.1021/je101156d).
Numbers after ± are expanded uncertainties.

Test: mn = molality of the nth substance listed, in mol/kg
Settings: 101.3 kPa, Liquid, Dip Cell

`CC(CN1c2ccccc2Sc2ccccc21)N(C)C.Cl` (stereo not given) [promethazine hydrochloride] + O showed an electrical conductivity (293.15 K, m1 = 0.00484) of 0.029 ± 0.04 S/m, an electrical conductivity (293.15 K, m1 = 0.00938) of 0.065 ± 0.04 S/m and an electrical conductivity (293.15 K, m1 = 0.0136) of 0.099 ± 0.04 S/m. The electrical conductivity (293.15 K, m1 = 0.0176) was 0.13 ± 0.04 S/m, the electrical conductivity (293.15 K, m1 = 0.0214) was 0.159 ± 0.04 S/m and the electrical conductivity (293.15 K, m1 = 0.025) was 0.184 ± 0.04 S/m. For the same compound, the electrical conductivity (293.15 K, m1 = 0.0284) was 0.208 ± 0.04 S/m, the electrical conductivity (293.15 K, m1 = 0.0316) was 0.23 ± 0.04 S/m and the electrical conductivity (293.15 K, m1 = 0.0346) was 0.251 ± 0.04 S/m. The electrical conductivity (293.15 K, m1 = 0.0375) was 0.271 ± 0.04 S/m, the electrical conductivity (293.15 K, m1 = 0.0402) was 0.289 ± 0.04 S/m and the electrical conductivity (293.15 K, m1 = 0.0429) was 0.307 ± 0.04 S/m. For the same compound, the electrical conductivity (293.15 K, m1 = 0.0453) was 0.327 ± 0.04 S/m, the electrical conductivity (293.15 K, m1 = 0.0477) was 0.336 ± 0.04 S/m and the electrical conductivity (293.15 K, m1 = 0.05) was 0.347 ± 0.04 S/m. It also gave an electrical conductivity (293.15 K, m1 = 0.0522) of 0.358 ± 0.04 S/m, an electrical conductivity (293.15 K, m1 = 0.0543) of 0.369 ± 0.04 S/m and an electrical conductivity (293.15 K, m1 = 0.0563) of 0.38 ± 0.04 S/m. For the same compound, the electrical conductivity (293.15 K, m1 = 0.0582) was 0.391 ± 0.04 S/m, the electrical conductivity (293.15 K, m1 = 0.06) was 0.402 ± 0.04 S/m and the electrical conductivity (293.15 K, m1 = 0.0618) was 0.41 ± 0.041 S/m. It also gave an electrical conductivity (293.15 K, m1 = 0.0635) of 0.417 ± 0.042 S/m, an electrical conductivity (293.15 K, m1 = 0.0651) of 0.424 ± 0.042 S/m and an electrical conductivity (293.15 K, m1 = 0.0667) of 0.431 ± 0.043 S/m. It also gave an electrical conductivity (293.15 K, m1 = 0.0682) of 0.438 ± 0.044 S/m, an electrical conductivity (293.15 K, m1 = 0.0696) of 0.445 ± 0.045 S/m and an electrical conductivity (293.15 K, m1 = 0.0711) of 0.452 ± 0.045 S/m. The electrical conductivity (293.15 K, m1 = 0.0724) was 0.459 ± 0.046 S/m, the electrical conductivity (293.15 K, m1 = 0.0737) was 0.466 ± 0.047 S/m and the electrical conductivity (293.15 K, m1 = 0.075) was 0.473 ± 0.047 S/m. For the same compound, the electrical conductivity (303.15 K, m1 = 0.00484) was 0.039 ± 0.04 S/m, the electrical conductivity (303.15 K, m1 = 0.00938) was 0.075 ± 0.04 S/m and the electrical conductivity (303.15 K, m1 = 0.0136) was 0.109 ± 0.04 S/m. It also gave an electrical conductivity (303.15 K, m1 = 0.0176) of 0.14 ± 0.04 S/m, an electrical conductivity (303.15 K, m1 = 0.0214) of 0.169 ± 0.04 S/m and an electrical conductivity (303.15 K, m1 = 0.025) of 0.194 ± 0.04 S/m. The electrical conductivity (303.15 K, m1 = 0.0284) was 0.218 ± 0.04 S/m, the electrical conductivity (303.15 K, m1 = 0.0316) was 0.24 ± 0.04 S/m and the electrical conductivity (303.15 K, m1 = 0.0346) was 0.261 ± 0.04 S/m. For the same compound, the electrical conductivity (303.15 K, m1 = 0.0375) was 0.281 ± 0.04 S/m, the electrical conductivity (303.15 K, m1 = 0.0402) was 0.299 ± 0.04 S/m and the electrical conductivity (303.15 K, m1 = 0.0429) was 0.317 ± 0.04 S/m. It also gave an electrical conductivity (303.15 K, m1 = 0.0453) of 0.337 ± 0.04 S/m, an electrical conductivity (303.15 K, m1 = 0.0477) of 0.346 ± 0.04 S/m and an electrical conductivity (303.15 K, m1 = 0.05) of 0.357 ± 0.04 S/m. It also gave an electrical conductivity (303.15 K, m1 = 0.0522) of 0.368 ± 0.04 S/m, an electrical conductivity (303.15 K, m1 = 0.0543) of 0.379 ± 0.04 S/m and an electrical conductivity (303.15 K, m1 = 0.0563) of 0.39 ± 0.04 S/m. It also gave an electrical conductivity (303.15 K, m1 = 0.0582) of 0.401 ± 0.04 S/m, an electrical conductivity (303.15 K, m1 = 0.06) of 0.412 ± 0.041 S/m and an electrical conductivity (303.15 K, m1 = 0.0618) of 0.42 ± 0.042 S/m. For the same compound, the electrical conductivity (303.15 K, m1 = 0.0635) was 0.427 ± 0.043 S/m, the electrical conductivity (303.15 K, m1 = 0.0651) was 0.434 ± 0.043 S/m and the electrical conductivity (303.15 K, m1 = 0.0667) was 0.441 ± 0.044 S/m. For the same compound, the electrical conductivity (303.15 K, m1 = 0.0682) was 0.448 ± 0.045 S/m, the electrical conductivity (303.15 K, m1 = 0.0696) was 0.455 ± 0.046 S/m and the electrical conductivity (303.15 K, m1 = 0.0711) was 0.462 ± 0.046 S/m. The electrical conductivity (303.15 K, m1 = 0.0724) was 0.469 ± 0.047 S/m, the electrical conductivity (303.15 K, m1 = 0.0737) was 0.476 ± 0.048 S/m and the electrical conductivity (303.15 K, m1 = 0.075) was 0.483 ± 0.048 S/m.
